Data published in patent US6855697B1, “Troxerutin with a high content of trihydroxyethylrutoside and process for its preparation” (Negma-Lerads, priority 1998, dated 2005).
“Also recorded” adds a separate entry of the source.

System: red blood cell aggregation
Assay: Ex vivo inhibition of red blood cell aggregation on human blood
Format: cell-based
Source text: This difference in efficacy was confirmed by the superiority of the enriched troxerutin according to the invention (trihydroxyethylrutoside content in the region of 95%) compared with commercially available troxerutins (content in the region of 84%). The advantage of decreasing the aggregation of red blood cells lies in a reduction in the total blood viscosity, and consequently in better fluidity of the blood. This property is manifested by an increase in the venous return and in the microcirculatory flow rate (increase in the density of the infused capillaries).

For `C[C@@H]1O[C@@H](OC[C@H]2O[C@@H](Oc3c(-c4ccc(OCCO)c(OCCO)c4)oc4cc(OCCO)cc(O)c4c3=O)[C@H](O)[C@@H](O)[C@@H]2O)[C@H](O)[C@H](O)[C@H]1O` [trihydroxyethyl derivative, 7,3′,4′-trihydroxyethylrutoside], the “Inhibition of red blood cell aggregation” value was “significantly improved; also recorded: more effective than the tetrahydroxyethyl derivative”.

In the case of `C[C@@H]1O[C@@H](OC[C@H]2O[C@@H](Oc3c(-c4ccc(OCCO)c(OCCO)c4)oc4cc(OCCO)cc(OCCO)c4c3=O)[C@H](O)[C@@H](O)[C@@H]2O)[C@H](O)[C@H](O)[C@H]1O` [tetrahydroxyethyl derivative, 5,7,3′,4′-tetrahydroxyethylrutoside, reference compound], the “Inhibition of red blood cell aggregation” value is reported as “significantly improved”.
